Measurements reported in PubChem BioAssay (NCI).
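Grown in 96-well plates, cells were treated for 48 hours with each compound at five concentrations. Insufficient inhibition: endpoint recorded as highest concentration tested. At the TGI there is no net growth.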

Tests used:
Test in all cases: growth of human tumour cells (NCI), 48 h
BT-549 breast = system: BT-549 breast
SF-539 CNS = system: SF-539 CNS
HCT-116 colon = system: HCT-116 colon
MCF7 breast = system: MCF7 breast
MALME-3M melanoma = system: MALME-3M melanoma
RPMI-8226 leukemia = system: RPMI-8226 leukemia
HOP-62 NSCLC = system: HOP-62 NSCLC
HOP-92 NSCLC = system: HOP-92 NSCLC
CCRF-CEM leukemia = system: CCRF-CEM leukemia
U251 CNS = system: U251 CNS
PC-3 prostate = system: PC-3 prostate
UACC-62 melanoma = system: UACC-62 melanoma
NCI-H226 lung = system: NCI-H226 lung
IGROV1 ovarian = system: IGROV1 ovarian
HCT-15 colon = system: HCT-15 colon
LOX IMVI melanoma = system: LOX IMVI melanoma
HT29 colon = system: HT29 colon
SW-620 colon = system: SW-620 colon
TK-10 renal = system: TK-10 renal
SK-MEL-28 melanoma = system: SK-MEL-28 melanoma
MOLT-4 leukemia = system: MOLT-4 leukemia
MDA-N = system: MDA-N
SF-268 CNS = system: SF-268 CNS
MDA-MB-231 breast = system: MDA-MB-231 breast
HS 578T breast = system: HS 578T breast
A549 NSCLC = system: A549 NSCLC
DU-145 prostate = system: DU-145 prostate
HL-60(TB) leukemia = system: HL-60(TB) leukemia
SK-OV-3 ovarian = system: SK-OV-3 ovarian
SN12C renal = system: SN12C renal
OVCAR-8 ovarian = system: OVCAR-8 ovarian
UO-31 renal = system: UO-31 renal
EKVX NSCLC = system: EKVX NSCLC
A498 renal = system: A498 renal
UACC-257 melanoma = system: UACC-257 melanoma
COLO 205 colon = system: COLO 205 colon
NCI-H522 lung = system: NCI-H522 lung
SF-295 CNS = system: SF-295 CNS
NCI/ADR-RES ovarian = system: NCI/ADR-RES ovarian
SK-MEL-5 melanoma = system: SK-MEL-5 melanoma
ACHN renal = system: ACHN renal
OVCAR-3 ovarian = system: OVCAR-3 ovarian
SR leukemia = system: SR leukemia
HCC-2998 colon = system: HCC-2998 colon
OVCAR-5 ovarian = system: OVCAR-5 ovarian
MDA-MB-435 = system: MDA-MB-435
786-0 renal = system: 786-0 renal
CAKI-1 renal = system: CAKI-1 renal
KM12 colon = system: KM12 colon
NCI-H460 lung = system: NCI-H460 lung
T-47D breast = system: T-47D breast
NCI-H23 lung = system: NCI-H23 lung
K-562 leukemia = system: K-562 leukemia
OVCAR-4 ovarian = system: OVCAR-4 ovarian
RXF 393 renal = system: RXF 393 renal
SNB-75 CNS = system: SNB-75 CNS
M14 melanoma = system: M14 melanoma
SK-MEL-2 melanoma = system: SK-MEL-2 melanoma
SNB-19 CNS = system: SNB-19 CNS

Measured: TGI

COc1ccc(C2=Nn3c(nc4sc(-c5ccccc5)cc4c3=O)SC2)cc1
not listed: K-562 leukemia | OVCAR-4 ovarian | RXF 393 renal | SNB-75 CNS | M14 melanoma | SK-MEL-2 melanoma | SNB-19 CNS
> 100 µM: all other assays above

Cc1cc2c(cc1C)C(=O)C1(C2)Cc2c(ccc(C)c2C)C1=O (stereo unspecified)
not listed: HOP-62 NSCLC | HT29 colon | SK-OV-3 ovarian | A498 renal | NCI-H23 lung
> 100 µM: all other assays above
